Experimental data: ChEMBL document CHEMBL5226377, “Totopotensamide Congeners from a Halogenase-Inactivated Mutant” (J Nat Prod, 2023)
pIC50: −log10 of the molar value.

Key:
Format in all cases: functional, cell-based
[1] = tested on: A549; assay: Cytotoxicity against human A549 cells assessed as inhibition of cell growth incubated for 24 hrs by MTT assay; conditions: A549, 24 h
[2] = tested on: PANC-1; assay: Cytotoxicity against human PANC-1 cells assessed as inhibition of cell growth incubated for 24 hrs by MTT assay; conditions: PANC-1, 24 h
[3] = tested on: Calu-3; assay: Cytotoxicity against human Calu-3 cells assessed as inhibition of cell growth incubated for 24 hrs by MTT assay; conditions: Calu-3, 24 h
[4] = tested on: BXPC-3; assay: Cytotoxicity against human BXPC-3 cells assessed as inhibition of cell growth incubated for 24 hrs by MTT assay; conditions: BXPC-3, 24 h

Structure (SMILES) | pIC50 [1] | pIC50 [2] | pIC50 [3] | pIC50 [4]
CC[C@H](C)[C@@H]1NC(=O)[C@H](c2cc(O)c(C)c(O)c2)NC(=O)[C@H](NC(=O)[C@H](C)NC(=O)[C@H](NC(=O)CC(=O)[C@@H](C)C[C@@H](C)C[C@@H](C)[C@H](O)[C@@H](C)C(=O)[C@@H](C)O)[C@@H](C)O)[C@@H](C)NC(=O)CNC1=O | 5.04 | 5.19 | 4.73 | 5.64
CC[C@H](C)[C@@H]1NC(=O)[C@H](c2cc(O)c(C)c(O)c2)NC(=O)[C@H](NC(=O)[C@H](C)NC(=O)[C@H](NC(=O)CC(=O)[C@@H](C)C[C@@H](C)C[C@@H](C)[C@H](O)[C@@H](CO)[C@@H](O)CC)[C@@H](C)O)[C@@H](C)NC(=O)CNC1=O | 4.98 | 5.18 | 4.82 | 5.09
CC[C@H](O[C@@H]1O[C@H](CO)[C@@H](OC)[C@H](O)[C@H]1O)[C@H](C)[C@@H](O)[C@H](C)C[C@H](C)C[C@H](C)C(=O)CC(=O)N[C@@H](C(=O)N[C@@H](C)C(=O)N[C@H]1C(=O)N[C@@H](c2cc(O)c(C)c(O)c2)C(=O)N[C@@H]([C@@H](C)CC)C(=O)NCC(=O)N[C@@H]1C)[C@@H](C)O | 5.43 | 5.41 | 4.91 | 5.41
CCC[C@H](C)[C@@H](O)[C@H](C)C[C@H](C)C[C@H](C)C(=O)CC(=O)N[C@@H](C(=O)N[C@@H](C)C(=O)N[C@H]1C(=O)N[C@@H](c2cc(O)c(C)c(O)c2)C(=O)N[C@@H]([C@@H](C)CC)C(=O)NCC(=O)N[C@@H]1C)[C@@H](C)O | < 4.00 | < 4.00 | < 4.00 | < 4.00
CCC(=O)[C@H](C)[C@@H](O)[C@H](C)C[C@H](C)C[C@H](C)C(=O)CC(=O)N[C@@H](C(=O)N[C@@H](C)C(=O)N[C@H]1C(=O)N[C@@H](c2cc(O)c(C)c(O)c2)C(=O)N[C@@H]([C@@H](C)CC)C(=O)NCC(=O)N[C@@H]1C)[C@@H](C)O | 5.01 | 5.02 | 4.84 | 5.14
CC[C@H](C)[C@@H]1NC(=O)[C@H](c2cc(O)c(C)c(O)c2Cl)NC(=O)[C@H](NC(=O)[C@H](C)NC(=O)[C@H](NC(=O)CC(=O)[C@@H](C)C[C@@H](C)C[C@@H](C)[C@H](O)[C@@H](C)[C@@H](O[C@@H]2O[C@H](CO)[C@@H](OC)[C@H](O)[C@H]2O)[C@@H](C)O)[C@@H](C)O)[C@@H](C)NC(=O)CNC1=O | < 4.00 | < 4.00 | < 4.00 | < 4.00
CC[C@H](C)[C@@H]1NC(=O)[C@H](c2cc(O)c(C)c(O)c2)NC(=O)[C@H](NC(=O)[C@H](C)NC(=O)[C@H](NC(=O)CC(=O)[C@@H](C)C[C@@H](C)C[C@@H](C)[C@H](O)[C@@H](C)[C@@H](O[C@@H]2O[C@H](CO)[C@@H](OC)[C@H](O)[C@H]2O)[C@@H](C)O)[C@@H](C)O)[C@@H](C)NC(=O)CNC1=O | < 4.00 | < 4.00 | < 4.00 | < 4.00
CC[C@H](C)[C@@H]1NC(=O)[C@H](c2cc(O)c(C)c(O)c2)NC(=O)[C@H](NC(=O)[C@H](C)NC(=O)[C@H](NC(=O)CC(=O)[C@@H](C)C[C@@H](C)C[C@@H](C)[C@H](O)[C@@H](C)[C@@H](O)CC)[C@@H](C)O)[C@@H](C)NC(=O)CNC1=O | 4.23 | 4.38 | < 4.00 | 4.52
